Data published in ChEMBL document CHEMBL1201862, “PubChem BioAssay data set” (2004).
Active and inactive are the calls of the source. Rule as the data show it, for most assays here: actives have a measured EC50 and inactives only a lower limit.

How the values were obtained:
[1] = target: T1, RNA-binding protein pos-1 (Caenorhabditis elegans, UniProt G5EF15); experiment: inhibitors of POS-1/mex-3 RNA binding, dose response, biochemical, fluorescence polarization (AID 1964);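 also: purified POS-1 fused to maltose binding protein made in E. coli; potency of compounds blocking POS-1 binding to fluorescent RNA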
T1 sequence (G5EF15 whole entry): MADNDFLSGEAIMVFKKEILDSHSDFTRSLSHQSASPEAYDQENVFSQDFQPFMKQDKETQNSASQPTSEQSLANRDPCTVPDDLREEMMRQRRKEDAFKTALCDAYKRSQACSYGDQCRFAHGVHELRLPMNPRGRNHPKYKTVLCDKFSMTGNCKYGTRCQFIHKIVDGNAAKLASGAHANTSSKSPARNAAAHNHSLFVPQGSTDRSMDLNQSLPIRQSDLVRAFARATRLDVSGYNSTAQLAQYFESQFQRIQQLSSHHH

[2] = target: T2, Zinc finger protein mex-5 (Caenorhabditis elegans, UniProt Q9XUB2); experiment: MEX-5/TCR-2 RNA interaction inhibitors, dose response, biochemical, C. elegans, fluorescence polarization (AID 1960)
T2 sequence (Q9XUB2 whole entry): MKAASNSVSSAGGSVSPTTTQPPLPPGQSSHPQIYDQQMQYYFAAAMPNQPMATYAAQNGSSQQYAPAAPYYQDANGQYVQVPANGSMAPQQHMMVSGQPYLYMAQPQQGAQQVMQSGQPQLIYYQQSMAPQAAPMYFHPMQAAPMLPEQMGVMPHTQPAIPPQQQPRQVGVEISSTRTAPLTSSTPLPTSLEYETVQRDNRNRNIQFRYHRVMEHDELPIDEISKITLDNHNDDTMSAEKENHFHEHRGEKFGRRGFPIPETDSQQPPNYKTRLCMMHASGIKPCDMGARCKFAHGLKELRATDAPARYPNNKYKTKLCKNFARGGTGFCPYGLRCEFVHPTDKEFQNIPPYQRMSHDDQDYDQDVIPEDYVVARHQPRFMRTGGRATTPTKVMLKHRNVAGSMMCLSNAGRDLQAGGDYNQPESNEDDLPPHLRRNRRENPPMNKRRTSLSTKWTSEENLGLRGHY

[3] = P. falciparum Dd2 growth inhibitors, dose response, SYBR Green, dry powder samples, set 9 (AID 1159568); type: functional, cell-based
[4] = target: T3, Leucine aminopeptidase (Plasmodium falciparum 3D7, UniProt Q8IL11); experiment: P. falciparum M17LAP inhibitors, primary screen, biochemical, fluorogenic H-Leu-NHMec substrate, 1536-well (AID 1619); type: functional
T3 sequence (Q8IL11 whole entry): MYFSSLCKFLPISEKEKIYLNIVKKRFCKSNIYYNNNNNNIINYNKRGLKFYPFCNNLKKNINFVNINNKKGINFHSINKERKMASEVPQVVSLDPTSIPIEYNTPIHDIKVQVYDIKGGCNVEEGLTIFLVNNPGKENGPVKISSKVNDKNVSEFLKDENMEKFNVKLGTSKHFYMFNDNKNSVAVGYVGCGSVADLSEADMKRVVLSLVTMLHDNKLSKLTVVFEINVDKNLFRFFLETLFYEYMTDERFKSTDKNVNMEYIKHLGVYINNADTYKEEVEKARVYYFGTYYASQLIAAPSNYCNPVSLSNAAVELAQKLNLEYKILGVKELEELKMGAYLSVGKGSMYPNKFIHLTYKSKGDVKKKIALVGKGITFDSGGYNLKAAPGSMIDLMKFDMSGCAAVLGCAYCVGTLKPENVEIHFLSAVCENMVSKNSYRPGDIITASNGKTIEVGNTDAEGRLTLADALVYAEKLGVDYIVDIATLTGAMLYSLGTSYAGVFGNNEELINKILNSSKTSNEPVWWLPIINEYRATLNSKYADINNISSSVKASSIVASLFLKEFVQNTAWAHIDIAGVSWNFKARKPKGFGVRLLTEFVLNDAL

[5] = target: FAD-linked sulfhydryl oxidase ALR (Homo sapiens, UniProt P55789); experiment: inhibitors of human ALR sulfhydryl oxidase, dose response, biochemical, H2O2 detection, luminescence, cherry-pick (AID 493248)
Chain of FAD-linked sulfhydryl oxidase ALR (P55789 whole entry, the tested form may be a part): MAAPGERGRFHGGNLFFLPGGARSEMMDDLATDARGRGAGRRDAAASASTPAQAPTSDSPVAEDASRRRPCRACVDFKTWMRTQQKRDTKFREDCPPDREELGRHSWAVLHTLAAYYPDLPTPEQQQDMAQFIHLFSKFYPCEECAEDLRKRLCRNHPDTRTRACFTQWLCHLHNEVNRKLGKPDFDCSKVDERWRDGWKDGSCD

[6] = target: T4, Fatty acid synthase (Homo sapiens, UniProt P49327); experiment: FAS thioesterase domain inhibitors, dose response, biochemical, kinetic fluorescence intensity (AID 624326); type: functional;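 also: rate of fluorescence rise from hydrolysis of a fluorogenic O-methyl fluorescein ester substrate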
T4 sequence (P49327 whole entry, the tested form may be a part): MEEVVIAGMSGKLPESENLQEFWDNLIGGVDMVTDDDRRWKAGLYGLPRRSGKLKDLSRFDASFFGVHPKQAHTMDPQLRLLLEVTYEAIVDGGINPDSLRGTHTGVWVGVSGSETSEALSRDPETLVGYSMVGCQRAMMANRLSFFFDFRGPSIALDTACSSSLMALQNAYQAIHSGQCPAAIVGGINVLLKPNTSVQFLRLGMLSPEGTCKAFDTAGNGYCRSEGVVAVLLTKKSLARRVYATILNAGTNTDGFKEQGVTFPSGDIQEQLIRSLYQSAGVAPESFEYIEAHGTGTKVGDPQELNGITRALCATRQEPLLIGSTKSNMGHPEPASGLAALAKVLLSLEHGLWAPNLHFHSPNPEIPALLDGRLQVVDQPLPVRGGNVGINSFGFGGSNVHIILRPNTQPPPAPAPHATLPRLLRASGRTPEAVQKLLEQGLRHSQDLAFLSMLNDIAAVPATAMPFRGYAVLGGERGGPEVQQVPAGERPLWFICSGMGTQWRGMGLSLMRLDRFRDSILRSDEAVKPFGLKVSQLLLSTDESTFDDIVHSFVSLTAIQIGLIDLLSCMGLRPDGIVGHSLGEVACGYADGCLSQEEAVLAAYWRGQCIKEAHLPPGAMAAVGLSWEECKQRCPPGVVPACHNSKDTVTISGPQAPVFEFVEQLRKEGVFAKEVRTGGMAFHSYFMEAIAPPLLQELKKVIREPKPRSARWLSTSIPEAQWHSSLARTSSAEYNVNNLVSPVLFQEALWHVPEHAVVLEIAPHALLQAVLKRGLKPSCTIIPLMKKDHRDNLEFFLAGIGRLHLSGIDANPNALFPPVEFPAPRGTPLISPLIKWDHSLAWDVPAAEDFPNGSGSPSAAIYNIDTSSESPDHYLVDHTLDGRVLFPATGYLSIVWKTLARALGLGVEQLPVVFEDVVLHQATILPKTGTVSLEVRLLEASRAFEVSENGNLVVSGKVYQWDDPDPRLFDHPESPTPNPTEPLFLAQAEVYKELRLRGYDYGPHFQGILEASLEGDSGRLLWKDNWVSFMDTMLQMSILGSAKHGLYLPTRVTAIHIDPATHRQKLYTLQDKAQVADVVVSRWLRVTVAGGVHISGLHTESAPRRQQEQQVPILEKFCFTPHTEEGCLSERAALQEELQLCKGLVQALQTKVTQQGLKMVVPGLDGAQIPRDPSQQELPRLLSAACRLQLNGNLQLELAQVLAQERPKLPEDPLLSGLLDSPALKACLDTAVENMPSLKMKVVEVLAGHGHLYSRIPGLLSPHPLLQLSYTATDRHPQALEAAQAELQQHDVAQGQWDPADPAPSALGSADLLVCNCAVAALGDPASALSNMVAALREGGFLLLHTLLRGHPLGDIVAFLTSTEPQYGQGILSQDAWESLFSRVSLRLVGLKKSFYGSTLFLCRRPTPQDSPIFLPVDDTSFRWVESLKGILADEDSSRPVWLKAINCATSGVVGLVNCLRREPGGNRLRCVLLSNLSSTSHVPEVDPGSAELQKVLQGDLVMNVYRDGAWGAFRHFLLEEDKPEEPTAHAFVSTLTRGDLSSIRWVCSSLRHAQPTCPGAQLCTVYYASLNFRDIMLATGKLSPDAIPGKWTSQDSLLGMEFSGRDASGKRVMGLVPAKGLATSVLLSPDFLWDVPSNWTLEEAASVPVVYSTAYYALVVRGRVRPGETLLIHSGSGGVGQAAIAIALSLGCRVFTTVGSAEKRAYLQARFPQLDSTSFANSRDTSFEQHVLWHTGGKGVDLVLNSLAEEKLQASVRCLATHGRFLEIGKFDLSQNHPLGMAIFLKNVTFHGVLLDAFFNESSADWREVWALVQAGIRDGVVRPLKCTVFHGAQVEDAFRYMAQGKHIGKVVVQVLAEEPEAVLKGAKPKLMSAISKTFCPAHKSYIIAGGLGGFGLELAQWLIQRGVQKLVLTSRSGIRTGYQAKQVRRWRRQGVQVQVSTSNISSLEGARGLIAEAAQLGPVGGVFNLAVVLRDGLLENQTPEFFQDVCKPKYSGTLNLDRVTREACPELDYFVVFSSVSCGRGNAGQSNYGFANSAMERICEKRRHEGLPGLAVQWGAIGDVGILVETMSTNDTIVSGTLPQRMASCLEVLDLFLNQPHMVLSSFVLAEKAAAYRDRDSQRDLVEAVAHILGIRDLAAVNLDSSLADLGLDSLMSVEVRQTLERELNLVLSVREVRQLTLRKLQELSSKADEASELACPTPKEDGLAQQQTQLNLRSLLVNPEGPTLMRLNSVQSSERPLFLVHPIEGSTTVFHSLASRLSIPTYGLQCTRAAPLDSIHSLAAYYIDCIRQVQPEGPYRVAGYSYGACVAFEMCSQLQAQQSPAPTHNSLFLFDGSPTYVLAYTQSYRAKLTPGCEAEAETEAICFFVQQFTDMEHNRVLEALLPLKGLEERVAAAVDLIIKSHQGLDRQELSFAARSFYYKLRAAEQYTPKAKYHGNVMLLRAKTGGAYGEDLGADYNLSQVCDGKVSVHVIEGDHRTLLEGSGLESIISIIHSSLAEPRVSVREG

[7] = target: T5, Carboxy-terminal domain RNA polymerase II polypeptide A small phosphatase 1 (Homo sapiens, UniProt Q9GZU7); experiment: inhibitors of CTDSP1, concentration-response testing, biochemical assay, absorbance-based, actives from ultra-high-throughput screening (AID 540297); type: functional
T5 sequence (Q9GZU7 whole entry): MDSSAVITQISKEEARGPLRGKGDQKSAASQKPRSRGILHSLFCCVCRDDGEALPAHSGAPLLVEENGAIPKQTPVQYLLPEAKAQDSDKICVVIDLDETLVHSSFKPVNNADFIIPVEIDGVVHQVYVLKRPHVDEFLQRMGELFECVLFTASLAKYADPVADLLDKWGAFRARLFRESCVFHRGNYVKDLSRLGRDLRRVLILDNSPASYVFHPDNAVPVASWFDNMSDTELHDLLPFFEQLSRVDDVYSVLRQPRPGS

[8] = target: T4, Fatty acid synthase; experiment: FAS thioesterase domain inhibitors, dose response, biochemical, endpoint fluorescence intensity, uHTS hits (AID 624327); type: functional;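 also: fluorescence from hydrolysis of an O-methyl fluorescein acyl ester substrate by the enzyme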
[9] = Luminescence Cell-Based Dose Confirmation HTS to Identify Activators of 5'UTR Stem-Loop Driven Alpha-Synuclein mRNA Translation in H4 Neuroglioblastoma Cells. [Related pubchem assays: 1829 (Project Summary), 1814 (Primary HTS)]; type: functional
[10] = Luminescence Cell-Based Dose Response HTS to Identify Activators of Luciferase Translation or Activity in H4 […] Cells. [Related pubchem assays: 1829 (Project Summary), 1814 (Primary HTS)]; type: functional
[11] = test system: H4; experiment: Luminescence Cell-Based Dose Response HTS to Identify Activators of 5'UTR Stem-Loop Driven Prion Protein mRNA Translation in H4 Neuroglioblastoma Cells. [Related pubchem assays: 1829 (Project Summary), 1814 (Primary HTS)]; type: functional; settings: Homo sapiens
[12] = NIH-3T3 fibroblast cytotoxicity, dose response, cytotoxicity control, cell-based, fluorescence, Alamar Blue, secondary assay (AID 2327); type: functional;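 also: NIH-3T3 mouse fibroblasts cultured with fluconazole at 8 µg/mL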
[13] = test system: INS1; experiment: beta cell apoptosis inhibitors, cytokine rescue, dose response, luminescence, retest (AID 449756); type: functional, cell-based; settings: Rattus norvegicus;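 also: cell death triggered by IL-1 beta plus TNF-alpha plus IFN-gamma mixture; protective hits raise ATP signal compared with cytokine alone wells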
[14] = C. albicans growth with fluconazole, confirmation, fluorescence, retest (AID 2467); type: functional, cell-based
[15] = test system: Streptococcus sp. 'group A'; experiment: growth inhibition of control SK(-) GAS strain, dose response, counter-screen for streptokinase expression inhibitor project, luminescence, kanamycin, BacTiterGlo, confirmation (AID 1900); type: functional, organism-based
[16] = target: T6, Streptokinase A (Streptococcus pyogenes serotype M1, UniProt P10520); experiment: S. pyogenes streptokinase expression inhibitors, potency, dose response, plasminogen activation absorbance, OD405 (AID 1914); type: functional, Streptococcus pyogenes M1 GAS;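 also: secreted streptokinase activity via plasminogen activation per viability signal from cell pellet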
T6 sequence (P10520 whole entry): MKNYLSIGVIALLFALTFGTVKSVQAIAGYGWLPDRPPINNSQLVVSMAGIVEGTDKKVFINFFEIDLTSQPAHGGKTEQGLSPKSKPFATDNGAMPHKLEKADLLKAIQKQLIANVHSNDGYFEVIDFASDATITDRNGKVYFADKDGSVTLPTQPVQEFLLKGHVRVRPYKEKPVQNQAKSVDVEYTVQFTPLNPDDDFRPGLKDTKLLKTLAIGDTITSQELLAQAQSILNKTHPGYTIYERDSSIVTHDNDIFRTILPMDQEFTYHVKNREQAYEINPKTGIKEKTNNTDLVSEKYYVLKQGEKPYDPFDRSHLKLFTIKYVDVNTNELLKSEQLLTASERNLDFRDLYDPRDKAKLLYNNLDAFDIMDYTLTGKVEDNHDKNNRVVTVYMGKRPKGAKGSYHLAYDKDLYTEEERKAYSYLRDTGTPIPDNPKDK

[17] = microbe, parasite or virus in culture; type: functional; settings: Mycobacterium tuberculosis
[18] = target: Large T antigen (Simian virus 40, UniProt P03070); type: functional, Betapolyomavirus macacae;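 also: Confirmatory-stage PubChem screen for compounds that inhibit SV40 T antigen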
Chain of Large T antigen (P03070 whole entry): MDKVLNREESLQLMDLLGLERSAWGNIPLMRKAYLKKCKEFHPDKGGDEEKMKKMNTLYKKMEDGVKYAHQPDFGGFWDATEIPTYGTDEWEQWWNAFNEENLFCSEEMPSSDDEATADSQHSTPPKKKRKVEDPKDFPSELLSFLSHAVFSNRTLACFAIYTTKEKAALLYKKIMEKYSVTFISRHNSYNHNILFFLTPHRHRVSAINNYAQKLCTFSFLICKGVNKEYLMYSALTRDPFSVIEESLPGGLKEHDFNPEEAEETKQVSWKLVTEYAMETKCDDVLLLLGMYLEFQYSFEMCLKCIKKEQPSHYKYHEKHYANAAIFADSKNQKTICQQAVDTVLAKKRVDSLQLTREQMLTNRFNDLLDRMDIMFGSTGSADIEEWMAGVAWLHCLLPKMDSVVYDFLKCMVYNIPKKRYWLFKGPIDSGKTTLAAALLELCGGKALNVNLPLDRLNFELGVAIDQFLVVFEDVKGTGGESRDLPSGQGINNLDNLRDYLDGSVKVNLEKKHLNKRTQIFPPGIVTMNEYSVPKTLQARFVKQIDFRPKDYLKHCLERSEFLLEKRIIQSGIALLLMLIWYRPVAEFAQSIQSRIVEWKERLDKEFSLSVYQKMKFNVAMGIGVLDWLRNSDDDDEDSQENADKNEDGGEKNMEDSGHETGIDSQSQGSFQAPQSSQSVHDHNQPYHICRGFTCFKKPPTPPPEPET

[19] = test system: Streptococcus; experiment: Group A Streptococcus viability loss, dose response, counter-screen for streptokinase expression inhibitor project, luminescence, BacTiterGlo (AID 1915); type: functional, organism-based;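 also: potency for reduction of bacterial viability or growth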
[20] = Luminescence Cell-Based Dose Confirmation HTS to Identify Inhibitors of Platelet Dense Granule Release. [Related pubchem assays: 1663 (Primary HTS), 1678 (Summary of Project)]; type: functional
[21] = test system: BJ; experiment: cytotoxicity toward BJ-TERT fibroblasts, dose response, cell-based, RAS-independent, luminescence (AID 1933); type: functional; settings: Homo sapiens
[22] = test system: BJ; experiment: cytotoxicity toward BJ-TERT-LT-ST fibroblasts, dose response, cell-based, RAS-independent, luminescence (AID 1935); type: functional; settings: Homo sapiens;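 also: BJ fibroblasts immortalized with TERT plus LT and ST oncogenes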
[23] = cytotoxicity toward DRD oncogenic fibroblasts, dose response, cell-based, non-viral oncogenic, luminescence (AID 1934); type: functional; settings: Homo sapiens
[24] = target: Luciferin 4-monooxygenase (Photinus pyralis, UniProt P08659); experiment: firefly luciferase enzyme inhibitors, dose response, biochemical, luminescence (AID 1891)
Chain of Luciferin 4-monooxygenase (P08659 whole entry): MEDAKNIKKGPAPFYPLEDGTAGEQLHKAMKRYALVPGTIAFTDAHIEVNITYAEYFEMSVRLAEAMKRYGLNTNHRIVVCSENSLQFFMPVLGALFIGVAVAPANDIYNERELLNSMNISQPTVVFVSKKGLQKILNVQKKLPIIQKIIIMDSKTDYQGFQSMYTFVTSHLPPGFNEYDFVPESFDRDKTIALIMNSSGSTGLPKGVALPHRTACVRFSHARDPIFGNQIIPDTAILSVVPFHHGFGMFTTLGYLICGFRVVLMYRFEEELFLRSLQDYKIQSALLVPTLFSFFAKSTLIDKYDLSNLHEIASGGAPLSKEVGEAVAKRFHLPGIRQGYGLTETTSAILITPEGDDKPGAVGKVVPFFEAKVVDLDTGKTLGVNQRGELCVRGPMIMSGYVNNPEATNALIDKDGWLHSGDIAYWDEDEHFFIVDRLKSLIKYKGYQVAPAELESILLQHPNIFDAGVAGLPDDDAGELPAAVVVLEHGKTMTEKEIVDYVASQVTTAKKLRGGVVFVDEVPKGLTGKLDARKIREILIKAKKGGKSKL

## C/N=C1\S/C(=C\c2cn(CC(=O)OC)c3ccccc23)C(=O)N1C
[1]
  EC50: > 300 µM (not active)
[2]
  EC50: > 300 µM (not active)

## C[C@@H]1CCCCO[C@@H](CN(C)S(=O)(=O)c2ccc(F)cc2)[C@H](C)CN([C@@H](C)CO)C(=O)c2cc(N(C)C)ccc2O1
[3]
  AC50: 7.31 µM (active)

## C[C@@H]1CN([C@@H](C)CO)C(=O)c2ccccc2-c2ccccc2CO[C@@H]1CN(C)S(=O)(=O)Cc1ccccc1
[3]
  AC50: 21.9 µM (active)

## CC1=NN(C(N)=S)C(=O)C1N=Nc1ccc(S(N)(=O)=O)cc1 (stereo unspecified)
[1]
  EC50: 19.7 µM (active)
[2]
  EC50: 8.86 µM (active)

## O=C(O)c1ccc(-n2cccc2)cc1O
[1]
  EC50: > 300 µM (not active)
[2]
  EC50: > 300 µM (not active)

## CCN(CC)c1ccc(NC(=O)Cn2cc3c(n2)CCC(C)C3)c(C)c1 (stereo unspecified)
[4]
  IC50: 6.41 µM (active)
[5]
  AC50: 48.8 µM (active)

## C[C@H](CO)N1C[C@H](C)[C@H](CN(C)S(=O)(=O)c2ccccc2)OCCCC[C@H](C)Oc2ccc(NC(=O)Nc3ccc4c(c3)OCO4)cc2C1=O
[3]
  AC50: 8.9 µM (active)

## Cc1ccc(NC(=O)CN2C(=O)CSc3ccc(S(=O)(=O)N4CCCCC4)cc32)cc1
[6]
  IC50: 9.65 µM (active)
[7]
  IC50: 4.3 µM (active)
[8]
  IC50: 14.9 µM (active)

## CC(=O)Nc1cccc(Oc2nc(-c3ccccn3)nc3ccccc23)c1
[1]
  EC50: 79.3 µM (active)
[9]
  EC50: 92.7 µM (active)
[10]
  EC50: 11.8 µM (active)
[2]
  EC50: 5.2 µM (active)
[11]
  EC50: 7.56 µM (active)

## C=CCN1C(=O)N/C(=C/c2ccc(N3CCOCC3)o2)C1=O
[12]
  EC50: 20 µM (active)
[13]
  AC50: > 260 µM (inactive)
[14]
  EC50: 2.15 µM (active)

## O=C(CNc1ccccc1F)N/N=C/C1CC=CCC1 (stereo unspecified)
[12]
  EC50: > 160 µM (inactive)
[14]
  EC50: > 38 µM (not active)

## CCc1cc2c(=O)oc(-c3ccccc3F)nc2s1
[6]
  IC50: 1.62 µM (active)
[8]
  IC50: 2.48 µM (active)

## CN=C(S)N1N=C(c2ccccc2)CC1c1ccccc1Cl (stereo unspecified)
[12]
  EC50: > 160 µM (inactive)
[14]
  EC50: > 38 µM (not active)

## COc1ccc(NC(=O)CSc2c(C)nn(-c3nnc(C)c(=O)[nH]3)c2C)cc1
[4]
  IC50: 83.7 µM (active)

## CCOC(=O)c1cccc(NC(=O)CSc2nc(N)cc(N)n2)c1
[4]
  IC50: 13.8 µM (active)

## COC(=O)c1cc(C(=O)Nc2nnc(CC(C)(C)C)s2)cc([N+](=O)[O-])c1
[6]
  IC50: 11.2 µM (active)
[8]
  IC50: 12.7 µM (active)

## N=C(N)N/N=C1C=C/C(=N\NC(N)=S)C=C\1 [AMBAZONE]
[1]
  EC50: 76.5 µM (active)
[15]
  EC50: < 0.06 µM (active)
[16]
  EC50: > 150 µM (not active)
[17]
  CC50: > 40 µM (active)
[18]
  IC50: 13.7 µM (active)
[2]
  EC50: 9.73 µM (active)
[19]
  EC50: 0.35 µM (active)

## O=C(Cc1ccccn1)N1CC2(C1)[C@H](c1ccccc1)[C@H](CO)N2C(=O)c1ccncc1
[3]
  AC50: 30 µM (active)

## CSc1nnc(-c2ccccc2/N=C/c2c(C)nn(-c3ccccc3)c2O)c(O)n1
[4]
  IC50: 48.6 µM (active)

## CCOC(=O)c1cc2c(=O)n3ccccc3nc2n(C(C)C)/c1=N\C(=O)c1ccncc1
[1]
  EC50: > 300 µM (not active)
[2]
  EC50: > 300 µM (not active)

## O=C(c1cc2cc([N+](=O)[O-])ccc2oc1=O)N1CCN(C2CCCCC2)CC1
[6]
  IC50: 9.68 µM (active)
[8]
  IC50: 13.9 µM (active)

## Cc1cccc(N2CCN(C(=O)COc3ccc4ccc(=O)oc4c3)CC2)c1C
[6]
  IC50: 5.23 µM (active)
[8]
  IC50: 3.84 µM (active)

## Cc1nn(C)c(C)c1CN(C)C(=O)C1c2ccccc2Oc2ccccc21
[1]
  EC50: 15.5 µM (active)
[2]
  EC50: 9.86 µM (active)

## Cc1cccc(C2CC3(CC(C)(C)N=C(S)N3)Oc3cc(O)ccc32)c1 (stereo unspecified)
[12]
  EC50: > 150 µM (inactive)
[14]
  EC50: 2.44 µM (active)

## Cc1ccc(N2C(=O)c3ccccc3C2O)nc1 (stereo unspecified)
[20]
  EC50: 1.74 µM (active)
[21]
  EC50: 8.32 µM (active)
[22]
  EC50: > 75 µM (inconclusive)
[23]
  EC50: 7.47 µM (inconclusive)
[24]
  EC50: 6.56 µM (active)
